Assay results from US20210078932A1, “3,4-DIHYDROXYPHENETHYL 3-HYDROXYBUTANOATE, PREPARATION AND USE THEREOF” (XI'AN JIAOTONG UNIVERSITY, priority 2019, published 2021).

Key:
rats with brain fatigue [1] = test: Open field test in sleep-deprivation brain fatigue rat model; type: in vivo, SD rats; details: for amelioration of manic mood of the rats with brain fatigue: overall conclusion after administration; for average moving speed / number of movements: sleep-deprived rats, drug intragastrically daily, compared with brain fatigue group; for average moving speed: FIG. 2A; for number of movements: FIG. 2B
Protocol: (§1) 8-week-old adult male SD rats (body weight: 250 g) purchased from Experimental Animal Center of The Second Military Medical University in Shanghai were used in the experiments. The rats were kept in an animal room with controlled temperature (22° C. to 28° C.) and humidity (60%). The light of the room was maintained in a 12 h/12 h day/night light cycle. The rats were able to eat and drink freely during the experiments. A brain fatigue rat model was established by using the sleep deprivation method in the experiments. The experimental rats were divided into five groups, with 10 rats in each group.
The five groups are as follows: (1) a normal feeding group with normal saline intragastrically administered daily (hereinafter referred to as the control group); (2) a brain fatigue model group established by the sleep deprivation method, with normal saline intragastrically administered daily (hereinafter referred to as the brain fatigue group); (3) a brain fatigue model group established by the sleep deprivation method, with 35 mg/kg of hydroxytyrosol acetate intragastrically administered daily (hereinafter referred to as HTac group, as shown in the following table); (4) a brain fatigue model group established by the sleep deprivation method, with 23.6 mg/kg of […] intragastrically administered daily (hereinafter referred to as HBET group, as shown in the following table); (5) a brain fatigue model group established by the sleep deprivation method, with 42.9 mg/kg of hydroxytyrosol hydroxybutyrate intragastrically administered daily (hereinafter referred to as HTHB group, as shown in Table 1).
The rats were preconditioned in the animal room for one week, during which the drugs were intragastrically administered. From the second day of the acquisition training of the water maze experiment, the rats other than the control group were started to be subjected to the small-platform-over-water sleep deprivation to establish the brain fatigue stress model. The sleep deprivation apparatus was mainly composed of two parts: a water tank and a platform disposed in the tank. The tank was filled with water. The size of the platform can only for the hind legs of the rat to stand. The platform was fixed to the bottom of the tank, and the top surface of the platform is above the water surface. The rat was placed on the platform for sleep deprivation. Once the rat fell asleep, its muscle tension would decrease and its center of gravity would move forward, which would cause the rat to fall into the water and suddenly be awakened. In order to avoid this, the rat must keep a slight grip on the edge of the platform, which deprived the sleep of the rat and caused brain fatigue.
The open field test is a classic behavioral test to evaluate emotion of rodents, which is based on the principle that the rodents have instincts to fear an open field and have spontaneous phobotaxis activities. Abnormalities in phobotaxis can indicate emotional abnormalities of rodents. The apparatus of the open field test was mainly composed of a black PVC box and a video tracking system. The box was 80 cm in both length and width and 50 cm in height. A camera of the video tracking system was hung at a height of 1.5 meters from the bottom of the box. The rat can move freely in the open field box, and the camera facing the box recorded the movements of the rat. By using the video tracking system, the interior of the box was divided into 16 squares arranged in 4×4 matrix, in which 12 surrounding squares were defined as a surrounding area, and 4 internal squares were defined as a central area, respectively.
The open field test follows the last day of the water maze experiment. After the water maze experiment, each rat was put back into the cage and rested for 10 minutes. Then in the open field test, the rat was placed at the center of the box bottom in a quiet environment, and was video recorded by the camera for 5 minutes, after which the rat was removed from the box. […]

rats with brain fatigue [2] = test: Morris water maze experiment (exploration test) in sleep-deprivation brain fatigue rat model; type: in vivo, SD rats
Protocol: as §1, with “group. […]” for “group.”

Row | Compound | amelioration of manic mood of the rats with brain fatigue (rats with brain fatigue [1]) | average moving speed (rats with brain fatigue [1]) | number of movements (rats with brain fatigue [1]) | improvement of learning and memory abilities of the rats with brain fatigue (rats with brain fatigue [2]; overall conclusion, compared with hydroxytyrosol acetate and ethyl β-hydroxybutyrate) | swimming time in the quadrant IV (percentage) (rats with brain fatigue [2]; sleep-deprived rats, drug intragastrically daily, compared with brain fatigue group, FIG. 1A) | amelioration of manic mood compared with hydroxytyrosol acetate and ethyl β-hydroxybutyrate (rats with brain fatigue [1]; overall comparison, in some indicators)
1 | hydroxytyrosol acetate [HTac] | significantly ameliorated to certain degrees | significantly different | significantly different |  |  | 
2 | CCOC(=O)CC(C)O (stereo not drawn) [HBET, ethyl β-hydroxybutyrate] | significantly ameliorated to certain degrees | significantly different |  |  |  | 
3 | CC(O)CC(=O)OCCc1ccc(O)c(O)c1 (centres unmarked) [HTHB, 3,4-dihydroxyphenethyl 3-hydroxybutanoate] | significantly ameliorated to certain degrees | significantly different | significantly different | more obviously improved the learning and memory abilities | significantly different | better amelioration of manic mood
